Values of other authors, collected in US20020165233A1, “Quinoxaline containing medicaments for post exposure prophylaxis of an HIV infection” (priority 1999, published 2002).

Experiments:
HIV-1 = settings: inhibitor given 1 hr before challenge, continued 20-30 weeks post challenge; cited from earlier work
HIV [1] = settings: prophylaxis with only zidovudine; case-control study; cited from earlier work
HIV [2] = settings: cited from earlier work
RT-SHIV = RT-SHIV infected rhesus monkeys; cited from earlier work
SIV = settings: administration 48 h before, 4 h after and 24 h after virus inoculation for 4 weeks; observed 56 weeks; cited from earlier work

In the case of `CCc1cc(CCc2nc3ccccc3o2)c(=O)[nH]c1C` [L-696,229], the “outcome of prophylaxis in treated animals” value (HIV-1) is listed as “developed delayed infections”.

For `Cc1cn([C@H]2C[C@H](N=[N+]=[N-])[C@@H](CO)O2)c(=O)[nH]c1=O` [zidovudine], the “protective effect of prophylaxis” value (HIV [1]) is listed as 80%, the “suppression (change in viremia)” value (HIV [2]; after 7 days of treatment at 1000 mg per day (Loveday et al)) is listed as 1 log and the mean initial suppression (HIV [2]; conventionally used antiviral agents given alone) is listed as no more than 1 log.

In the case of `C[C@H](Cn1cnc2c(N)ncnc21)OCP(=O)(O)O` [PMPA], the “effect of post exposure prophylaxis (PEP)” value (RT-SHIV) is listed as “vaccination effect protecting the animals against wild-type challenge” and the “protection against SIV infection” value (SIV) is listed as “full protection”.
